Where a name gives a salt, the structure may show the parent alone.
Columns and labels:
[1] = tested on: Japanese bush cranberry; assay: Experiment 3 foliar application to naturally growing shrubs; format: in vivo, Viburnum dilatatum Thunb.; settings: for Reproduction-inhibiting: after 3 months
Description: (§1) The detail of the assessment made in the following Experiments of the invention was as follows:
(§2) Four months after treatment, evaluation was made for inhibition of reproduction expressed in terms of symbols ranging from (-) to (+++) where (-) means no reproduction, namely complete suppression of reproduction, (±) remarkable suppression of reproduction; (+) considerable suppression of reproduction; (++) medium supprestion of reproduction; and (+++) no suppression of reproduction.
(§3) The compounds of the invention and other compounds listed in Table 5. were diluted to prescribed concentrations and sprayed onto naturally growing shrubs by foliar application in an amount of 150 liter per 10 are.
(§4) 0.1% of octylphenyl polyoxyethanol was added as the surfactant. The killing index (0, no effect; 5, death) after 1 month and 3 months, and the reproduction-inhibiting effect (-, no reproduction; +++, maximum reproduction) after 3 months were determined.

[2] = tested on: chigaya; assay: Experiment 1 foliar application to naturally growing weeds; format: in vivo, Imperata cylindrica Beauv.; settings: 4 months
Description: as §1, §2
(§5) The compounds of the invention and other compounds for comparison listed in Table 3 were diluted to prescribed concentrations and sprayed to naturally growing weeds by foliar application in an amount of 150 liter per 10 are.
(§6) 0.1% of octylphenyl polyoxyethanol was added as a surfactant.
(§7) The killing index (0, no effect, 5, death) after 21 days, and the reproduction-inhibiting effect (-, no reproduction; +++, maximum reproduction) after 2 months (manna grass and cockspar grass) and 4 months (other weeds) were determined.

[3] = tested on: kiichigo; assay: Experiment 3 foliar application to naturally growing shrubs; format: in vivo, Rubus palmatsu Thunb. forma coptophyllus Makino; settings: for Reproduction-inhibiting: after 3 months
Description: as §1, §2, §3, §4

[4] = tested on: manna grass; assay: Experiment 1 foliar application to naturally growing weeds; format: in vivo, Digitaria adsceudes Henr.; settings: 2 months
Description: as §1, §2, §5, §6, §7

[5] = tested on: Japanese prickly ash; assay: Experiment 3 foliar application to naturally growing shrubs; format: in vivo, Xanthoxylum piperitum DC.; settings: after 3 months
Description: as §1, §2, §3, §4

[6] = tested on: white clover; assay: Experiment 1 foliar application to naturally growing weeds; format: in vivo, Trifolium repens L.; settings: 4 months
Description: as §1, §2, §5, §6, §7

[7] = tested on: azumanezasa; assay: as above; format: in vivo, Pleioblastus Chino Makino; settings: 4 months
Description: as §1, §2, §5, §6, §7

[8] = tested on: warunasubi; assay: as above; format: in vivo, Solanum carolinensis L.; settings: 4 months
Description: as §1, §2, §5, §6, §7

[9] = tested on: eulalia; assay: Experiment 2 foliar application in Japanese cypress afforested land; format: in vivo, Miscanthus sinensis Andress.; design: key: 0 = no effect, 5 = death; settings: 0.125%; after 30 days
Procedure: as §1
(§8) The compounds of the invention and other compounds listed in Table 4. were diluted to prescribed concentrations and sprayed to shrubs by foliar application in a Japanese cypress afforested land in an amount of 150 liter per 10 are.
(§9) After 30 days and 3 months, the killing index (0, no effect; 5, death) was determined.
(§10) The heights of plants were 50-70 cm. for Japanese cypress, about 50 cm. for chestnut, 50-90 cm. for miyakozasa, about 100 cm. for eulalia and 70-100 cm. for kumaichigo, respectively.

[10] = tested on: yamazakura; assay: Experiment 3 foliar application to naturally growing shrubs; format: in vivo, Prunus donarium Sieb. var. spontanae Makino; settings: after 3 months
Description: as §1, §2, §3, §4

[11] = tested on: cockspar grass; assay: Experiment 1 foliar application to naturally growing weeds; format: in vivo, Echinochloa Crusgalli P. Beauv.; settings: 2 months
Description: as §1, §2, §5, §6, §7

[12] = tested on: purple nutsedge; assay: as above; format: in vivo, Cyperus rotundus L.; settings: 4 months
Description: as §1, §2, §5, §6, §7

[13] = tested on: kumaichigo; assay: Experiment 2 foliar application in Japanese cypress afforested land; format: in vivo, Rubus crataegifolius Bunge; settings: 0.125%; after 30 days
Procedure: as §1, §8, §9, §10

[14] = tested on: hedge bindweed; assay: Experiment 1 foliar application to naturally growing weeds; format: in vivo, Calystegis hederacea Wall.; settings: 4 months
Description: as §1, §2, §5, §6, §7

[15] = tested on: oak; assay: Experiment 3 foliar application to naturally growing shrubs; format: in vivo, Quercus serrata Thunb; settings: after 3 months
Description: as §1, §2, §3, §4

[16] = tested on: lace shrub; assay: as above; format: in vivo, Stephanandra incisa Zabel; settings: for Reproduction-inhibiting: after 3 months
Description: as §1, §2, §3, §4

[17] = tested on: torch azalea; assay: as above; format: in vivo, Rhododendoron Kaempferi Planch.; settings: after 3 months
Description: as §1, §2, §3, §4

[18] = tested on: yabugarashi; assay: Experiment 1 foliar application to naturally growing weeds; format: in vivo, Cayratia japonica Houtt.; settings: 4 months
Description: as §1, §2, §5, §6, §7

[19] = tested on: water hyacinth; assay: Experiment 5 foliar application to water hyacinths; format: in vivo, Eichhornia crassipes Solms; design: key to Killing index: 0 = no effect, 5 = death; settings: for Reproduction-inhibiting effect: 3 months; for Killing index: 21 days
Description: as §1, §2
Water was placed in 20 cm.×30 cm. plastic vessels and a liquid fertilizer was added thereto. Two water hyacinths were floated in each vessel.
0.1 or 0.2% aqueous solutions of each of the compounds of the invention listed in Table 7 were sprayed by foliar application in an amount of 100 liter per 10 are. As a surfactant, 0.1% of octylphenyl polyoxyethanol was added.
The killing index (0, no effect; 5, death) after 21 days and 3 months, and the reproduction-inhibiting effect (-, no reproduction; +++, maximum reproduction) after 3 months were determined.

SMILES: CP(=O)(O)CC[C@H](N)C(=O)O [L-2-Amino-4-methylphosphinobutanoic acid monodiethanolammoni] [L-2-Amino-4-methylphosphinobutanoic acid monodiethanolammonium salt]
- Reproduction-inhibiting ([1]; 0.05%): +++
- Reproduction-inhibiting ([1]; 0.1%): ++
- Killing index ([1]; 0.1%, after 30 days): 4.5
- Reproduction-inhibiting ([1]; 0.2%): -
- Reproduction-inhibiting effect ([2]; 0.05%): ++
- Reproduction-inhibiting effect ([2]; 0.1%): -
- Reproduction-inhibiting effect ([2]; 0.2%): -
- Reproduction-inhibiting ([3]; 0.05%): ++
- Killing index ([3]; 0.05%, after 30 days): 3.5
- Reproduction-inhibiting ([3]; 0.1%): -
- Reproduction-inhibiting ([3]; 0.2%): -
- Reproduction-inhibiting effect ([4]; 0.05%): ++
- Reproduction-inhibiting effect ([4]; 0.1%): -
- Reproduction-inhibiting effect ([4]; 0.2%): -
- Reproduction-inhibiting ([5]; 0.05%): +++
- Killing index ([5]; 0.1%): 4.5
- Reproduction-inhibiting ([5]; 0.1%): ±
- Reproduction-inhibiting ([5]; 0.2%): -
- Reproduction-inhibiting effect ([6]; 0.05%): +++
- Reproduction-inhibiting effect ([6]; 0.1%): -
- Reproduction-inhibiting effect ([6]; 0.2%): -
- Reproduction-inhibiting effect ([7]; 0.05%): ++
- Reproduction-inhibiting effect ([7]; 0.1%): -
- Reproduction-inhibiting effect ([7]; 0.2%): -
- Reproduction-inhibiting effect ([8]; 0.05%): +++
- Reproduction-inhibiting effect ([8]; 0.1%): +
- Reproduction-inhibiting effect ([8]; 0.2%): ±
- Killing index [9]: 3.5
- Reproduction-inhibiting ([10]; 0.05%): ++
- Reproduction-inhibiting ([10]; 0.1%): -
- Reproduction-inhibiting ([10]; 0.2%): -
- Reproduction-inhibiting effect ([11]; 0.05%): ++
- Reproduction-inhibiting effect ([11]; 0.1%): -
- Reproduction-inhibiting effect ([11]; 0.2%): -
- Reproduction-inhibiting effect ([12]; 0.05%): +++
- Reproduction-inhibiting effect ([12]; 0.1%): +
- Reproduction-inhibiting effect ([12]; 0.2%): ±
- Killing index [13]: 4.5
- Reproduction-inhibiting effect ([14]; 0.05%): +++
- Reproduction-inhibiting effect ([14]; 0.1%): ++
- Reproduction-inhibiting effect ([14]; 0.2%): +
- Reproduction-inhibiting ([15]; 0.05%): ++
- Reproduction-inhibiting ([15]; 0.1%): -
- Reproduction-inhibiting ([15]; 0.2%): -
- Reproduction-inhibiting ([16]; 0.05%): ++
- Killing index ([16]; 0.05%, after 30 days): 3.5
- Reproduction-inhibiting ([16]; 0.1%): -
- Reproduction-inhibiting ([16]; 0.2%): -
- Reproduction-inhibiting ([17]; 0.05%): +++
- Reproduction-inhibiting ([17]; 0.1%): -
- Reproduction-inhibiting ([17]; 0.2%): -
- Reproduction-inhibiting effect ([18]; 0.05%): ++
- Reproduction-inhibiting effect ([18]; 0.1%): +
- Reproduction-inhibiting effect ([18]; 0.2%): ±

SMILES: C[C@H](NC(=O)[C@H](C)NC(=O)[C@@H](N)CCP(C)(=O)O)C(=O)O [SF-1293 monopotassium salt]
- Reproduction-inhibiting effect ([19]; 0.1%): +
- Reproduction-inhibiting effect ([19]; 0.2%): -
- Killing index ([19]; 0.2%): 4.5

SMILES: C[C@H](NC(=O)[C@H](C)NC(=O)[C@@H](N)CCP(C)(=O)O)C(=O)O [SF-1293 disodium salt]
- Reproduction-inhibiting effect ([19]; 0.1%): +
- Reproduction-inhibiting effect ([19]; 0.2%): -
- Killing index ([19]; 0.2%): 4.5

Reference: patent US4226610A, “Herbicidal compounds, preparation thereof and herbicides containing the same” (Meiji Selka Kaisha, Ltd., priority 1978, dated 1980)
